Assay results: PubChem BioAssay (NCI)
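In this assay, cells in 96-well plates receive the compound at five concentrations for 48 hours. Endpoints are linearly interpolated between the surrounding concentrations. Definition used: TGI = concentration required for complete inhibition of growth.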

How the values were obtained:
Experiment in all cases: DTP human tumour cell line panel, 48 h
[1] = test system: IGROV1 ovarian
[2] = test system: A498 renal
[3] = test system: RPMI-8226 leukemia
[4] = test system: KM20L2 colon
[5] = test system: MOLT-4 leukemia
[6] = test system: NCI-H522 lung
[7] = test system: DMS 273 small cell lung
[8] = test system: COLO 205 colon
[9] = test system: EKVX NSCLC
[10] = test system: SK-MEL-5 melanoma
[11] = test system: 786-0 renal
[12] = test system: OVCAR-4 ovarian
[13] = test system: U251 CNS
[14] = test system: LOX IMVI melanoma
[15] = test system: SR leukemia
[16] = test system: SNB-78 CNS
[17] = test system: TK-10 renal
[18] = test system: ACHN renal
[19] = test system: M14 melanoma
[20] = test system: KM12 colon
[21] = test system: XF 498 CNS
[22] = test system: SK-MEL-2 melanoma
[23] = test system: HCC-2998 colon
[24] = test system: HOP-62 NSCLC
[25] = test system: MALME-3M melanoma
[26] = test system: CCRF-CEM leukemia
[27] = test system: UACC-257 melanoma
[28] = test system: DMS 114 small cell lung
[29] = test system: NCI-H460 lung
[30] = test system: SNB-75 CNS
[31] = test system: LXFL 529 NSCLC
[32] = test system: RXF 393 renal
[33] = test system: OVCAR-8 ovarian
[34] = test system: NCI-H226 lung
[35] = test system: HL-60(TB) leukemia
[36] = test system: SW-620 colon
[37] = test system: HCT-116 colon
[38] = test system: SN12C renal
[39] = test system: SNB-19 CNS
[40] = test system: A549 NSCLC
[41] = test system: HCT-15 colon
[42] = test system: SF-539 CNS
[43] = test system: OVCAR-5 ovarian
[44] = test system: OVCAR-3 ovarian
[45] = test system: SF-268 CNS
[46] = test system: UO-31 renal
[47] = test system: SK-OV-3 ovarian
[48] = test system: HT29 colon
[49] = test system: HOP-18 NSCLC
[50] = test system: UACC-62 melanoma
[51] = test system: NCI-H23 lung
[52] = test system: HOP-92 NSCLC
[53] = test system: K-562 leukemia
[54] = test system: SK-MEL-28 melanoma
[55] = test system: SF-295 CNS
[56] = test system: M19-MEL melanoma
[57] = test system: RXF-631 renal
[58] = test system: DLD-1 colon
[59] = test system: CAKI-1 renal

CCCCc1c2c(nc3c1CCCC3O)/C(=C/c1ccccc1)CCC2 (stereo not drawn)
TGI [1]: > 100 µM
TGI [2]: > 100 µM
TGI [3]: 46.2 µM
TGI [4]: 75.1 µM
TGI [5]: 38.7 µM
TGI [6]: 52.5 µM
TGI [7]: > 100 µM
TGI [8]: 33.4 µM
TGI [9]: 97.4 µM
TGI [10]: 39.6 µM
TGI [11]: 57 µM
TGI [12]: > 100 µM
TGI [13]: 64.1 µM
TGI [14]: 34.5 µM
TGI [15]: 42 µM
TGI [16]: > 100 µM
TGI [17]: 74.7 µM
TGI [18]: > 100 µM
TGI [19]: 53.8 µM
TGI [20]: 36.8 µM
TGI [21]: 28.2 µM
TGI [22]: 51.7 µM
TGI [23]: 24.3 µM
TGI [24]: > 100 µM
TGI [25]: 44.8 µM
TGI [26]: 43.9 µM
TGI [27]: 96.6 µM
TGI [28]: 53.1 µM
TGI [29]: > 100 µM
TGI [30]: > 100 µM
TGI [31]: > 100 µM
TGI [32]: 71.7 µM
TGI [33]: > 100 µM
TGI [34]: 68 µM
TGI [35]: 43 µM
TGI [36]: 64.2 µM
TGI [37]: > 100 µM
TGI [38]: 62.5 µM
TGI [39]: > 100 µM
TGI [40]: > 100 µM
TGI [41]: 61.6 µM
TGI [42]: 66.9 µM
TGI [43]: > 100 µM
TGI [44]: 35.9 µM
TGI [45]: 85.3 µM
TGI [46]: > 100 µM
TGI [47]: > 100 µM
TGI [48]: 46.1 µM
TGI [49]: 89.5 µM
TGI [50]: 95.7 µM
TGI [51]: > 100 µM
TGI [52]: > 100 µM
TGI [53]: 40.5 µM
TGI [54]: 94.3 µM
TGI [55]: > 100 µM
TGI [56]: 57.1 µM

COc1ccc2oc3c4c2c1CCC4CCC3=O (stereo not drawn)
TGI [1]: > 100 µM
TGI [2]: > 100 µM
TGI [3]: > 100 µM
TGI [5]: > 100 µM
TGI [6]: > 100 µM
TGI [7]: > 100 µM
TGI [8]: > 100 µM
TGI [9]: > 100 µM
TGI [10]: > 100 µM
TGI [57]: > 100 µM
TGI [11]: > 100 µM
TGI [12]: > 100 µM
TGI [13]: > 100 µM
TGI [14]: > 100 µM
TGI [15]: > 100 µM
TGI [16]: > 100 µM
TGI [17]: > 100 µM
TGI [18]: > 100 µM
TGI [19]: > 100 µM
TGI [20]: > 100 µM
TGI [21]: > 100 µM
TGI [22]: > 100 µM
TGI [23]: > 100 µM
TGI [24]: > 100 µM
TGI [25]: > 100 µM
TGI [26]: > 100 µM
TGI [27]: 31.2 µM
TGI [28]: > 100 µM
TGI [29]: > 100 µM
TGI [30]: > 100 µM
TGI [31]: > 100 µM
TGI [32]: > 100 µM
TGI [33]: > 100 µM
TGI [35]: > 100 µM
TGI [36]: > 100 µM
TGI [38]: > 100 µM
TGI [39]: > 100 µM
TGI [40]: > 100 µM
TGI [42]: > 100 µM
TGI [43]: > 100 µM
TGI [44]: > 100 µM
TGI [45]: > 100 µM
TGI [46]: 99.5 µM
TGI [47]: > 100 µM
TGI [48]: > 100 µM
TGI [50]: > 100 µM
TGI [51]: > 100 µM
TGI [52]: > 100 µM
TGI [53]: > 100 µM
TGI [54]: > 100 µM
TGI [55]: > 100 µM
TGI [56]: > 100 µM

CC(=O)Oc1cc(OC(C)=O)c2c(=O)c3ccccc3[nH]c2c1
TGI [1]: 81.1 µM
TGI [5]: > 100 µM
TGI [6]: 76.6 µM
TGI [7]: > 100 µM
TGI [10]: 39.1 µM
TGI [12]: > 100 µM
TGI [14]: > 100 µM
TGI [16]: > 100 µM
TGI [17]: > 100 µM
TGI [18]: > 100 µM
TGI [20]: > 100 µM
TGI [21]: 51.9 µM
TGI [22]: > 100 µM
TGI [58]: > 100 µM
TGI [25]: 67.9 µM
TGI [27]: 85.1 µM
TGI [28]: > 100 µM
TGI [29]: > 100 µM
TGI [30]: 92.8 µM
TGI [31]: > 100 µM
TGI [32]: > 100 µM
TGI [33]: > 100 µM
TGI [34]: 88.9 µM
TGI [37]: > 100 µM
TGI [38]: > 100 µM
TGI [39]: > 100 µM
TGI [40]: > 100 µM
TGI [41]: > 100 µM
TGI [42]: 47.1 µM
TGI [44]: 83.7 µM
TGI [45]: > 100 µM
TGI [46]: 41.6 µM
TGI [47]: 49.5 µM
TGI [48]: > 100 µM
TGI [49]: 51.2 µM
TGI [50]: > 100 µM
TGI [51]: > 100 µM
TGI [54]: > 100 µM
TGI [55]: > 100 µM
TGI [56]: 86.9 µM

COc1ccc(/C=C2\CCCCC2=O)cc1
TGI [1]: > 100 µM
TGI [2]: > 100 µM
TGI [4]: > 100 µM
TGI [5]: > 100 µM
TGI [7]: > 100 µM
TGI [8]: > 100 µM
TGI [9]: > 100 µM
TGI [10]: > 100 µM
TGI [11]: > 100 µM
TGI [12]: > 100 µM
TGI [13]: > 100 µM
TGI [14]: > 100 µM
TGI [16]: > 100 µM
TGI [17]: > 100 µM
TGI [18]: > 100 µM
TGI [19]: > 100 µM
TGI [21]: > 100 µM
TGI [58]: > 100 µM
TGI [24]: > 100 µM
TGI [26]: > 100 µM
TGI [28]: > 100 µM
TGI [29]: > 100 µM
TGI [30]: > 100 µM
TGI [31]: > 100 µM
TGI [33]: > 100 µM
TGI [35]: > 100 µM
TGI [36]: > 100 µM
TGI [37]: > 100 µM
TGI [38]: > 100 µM
TGI [40]: > 100 µM
TGI [41]: > 100 µM
TGI [42]: > 100 µM
TGI [44]: > 100 µM
TGI [45]: > 100 µM
TGI [46]: > 100 µM
TGI [47]: > 100 µM
TGI [48]: > 100 µM
TGI [49]: > 100 µM
TGI [50]: > 100 µM
TGI [59]: > 100 µM
TGI [51]: > 100 µM
TGI [53]: > 100 µM
TGI [54]: > 100 µM
TGI [55]: > 100 µM
TGI [56]: > 100 µM
